Tested on: MV-4-11 cells
Experiment: Gene expression microarray analysis (Affymetrix PrimeView) and GSEA
Assay type: cell-based, human
Set-up: RFU PODN (11730768_x_at) / Fold change /veh PODN (11730768_x_at) / RFU LINC00158 (11744669_a_at) / Fold change /veh LINC00158 (11744669_a_at) / RFU DUSP10 (11751237_a_at) / Fold change /veh DUSP10 (11751237_a_at) / RFU ID3 (11757404_x_at) / Fold change /veh ID3 (11757404_x_at) / RFU PLEKHG5 (11737974_s_at) / Fold change /veh PLEKHG5 (11737974_s_at) / RFU LRRC4B (11730491_at) / Fold change /veh LRRC4B (11730491_at) / RFU GIMAP4 (11747438_a_at) / Fold change /veh GIMAP4 (11747438_a_at) / RFU KRT8 (11758183_x_at) / Fold change /veh KRT8 (11758183_x_at) / RFU CNN1 (11734310_a_at) / Fold change /veh CNN1 (11734310_a_at) / RFU VPS37D (11726825_at) / Fold change /veh VPS37D (11726825_at) / RFU C10orf10 (11716522_x_at) / Fold change /veh C10orf10 (11716522_x_at) / RFU KIR2DL2 /// KIR2DL4 /// KIR2DL5A /// KIR2DL5B /// KIR2DS1 /// KIR2DS2 /// KIR2DS3 /// KIR2DS4 /// KIR3DL3 /// KIR3DL3 /// KIR3DS1 (11738374_at) / Fold change /veh KIR2DL2 /// KIR2DL4 /// KIR2DL5A /// KIR2DL5B /// KIR2DS1 /// KIR2DS2 /// KIR2DS3 /// KIR2DS4 /// KIR3DL3 /// KIR3DL3 /// KIR3DS1 (11738374_at) / RFU C1QL1 (11718748_at) / Fold change /veh C1QL1 (11718748_at) / RFU TMPRSS4 (11747572_a_at) / Fold change /veh TMPRSS4 (11747572_a_at) / RFU HAMP (11756126_x_at) / Fold change /veh HAMP (11756126_x_at) / RFU RNFT2 (11725882_a_at) / Fold change /veh RNFT2 (11725882_a_at) / RFU NR4A2 (11747474_a_at) / Fold change /veh NR4A2 (11747474_a_at) / RFU ABCC12 (11746883_a_at) / Fold change /veh ABCC12 (11746883_a_at) / RFU TMEM136 (11760407_x_at) / Fold change /veh TMEM136 (11760407_x_at) / RFU CLDN22 /// WWC2 (11732394_at) / Fold change /veh CLDN22 /// WWC2 (11732394_at) / RFU HLA-DPB1 (11760878_x_at) / Fold change /veh HLA-DPB1 (11760878_x_at) / RFU SPINT1 (11716480_a_at) / Fold change /veh SPINT1 (11716480_a_at) / RFU GAP43 (11754022_s_at) / Fold change /veh GAP43 (11754022_s_at) / RFU A4GNT (11735810_at) / Fold change /veh A4GNT (11735810_at) / RFU PRB3 (11715151_x_at) / Fold change /veh PRB3 (11715151_x_at) / RFU TUBB4B (11761932_at) / Fold change /veh TUBB4B (11761932_at) / RFU CAPN14 (11732068_a_at) / Fold change /veh CAPN14 (11732068_a_at) / RFU TMCC2 (11721928_a_at) / Fold change /veh TMCC2 (11721928_a_at) / RFU IRGQ (11745062_a_at) / Fold change /veh IRGQ (11745062_a_at) / RFU FAM174B (11720279_a_at) / Fold change /veh FAM174B (11720279_a_at) / RFU TMPRSS4 (11748680_a_at) / Fold change /veh TMPRSS4 (11748680_a_at) / RFU FAM212B (11763350_a_at) / Fold change /veh FAM212B (11763350_a_at) / RFU PLEKHG5 (11743358_a_at) / Fold change /veh PLEKHG5 (11743358_a_at) / RFU ZSCAN30 (11745921_a_at) / Fold change /veh ZSCAN30 (11745921_a_at) / RFU CMKLR1 (11741424_a_at) / Fold change /veh CMKLR1 (11741424_a_at) / RFU LOC101060620 /// MAPK8IP1 (11723275_at) / Fold change /veh LOC101060620 /// MAPK8IP1 (11723275_at) / RFU SPTSSB (11747773_x_at) / Fold change /veh SPTSSB (11747773_x_at) / RFU PRSS12 (11739890_at) / Fold change /veh PRSS12 (11739890_at) / RFU BIN1 (11741810_x_at) / Fold change /veh BIN1 (11741810_x_at) / RFU WNT11 (11732464_a_at) / Fold change /veh WNT11 (11732464_a_at) / RFU C10orf10 (11716521_a_at) / Fold change /veh C10orf10 (11716521_a_at) / RFU C5orf56 (11738089_at) / Fold change /veh C5orf56 (11738089_at) / RFU CYB561 (11721691_x_at) / Fold change /veh CYB561 (11721691_x_at) / RFU ANKRD19P (11752326_a_at) / Fold change /veh ANKRD19P (11752326_a_at) / RFU OR2T12 /// OR2T33 /// OR2T8 (11738714_s_at) / Fold change /veh OR2T12 /// OR2T33 /// OR2T8 (11738714_s_at) / RFU VCAN (11748164_a_at) / Fold change /veh VCAN (11748164_a_at) / RFU JSRP1 (11732532_at) / Fold change /veh JSRP1 (11732532_at) / RFU KRTAP10-11 (11738290_x_at) / Fold change /veh KRTAP10-11 (11738290_x_at) / RFU MYO3A (11730013_a_at) / Fold change /veh MYO3A (11730013_a_at) / RFU EBF3 (11725865_a_at) / Fold change /veh EBF3 (11725865_a_at) / RFU CAMK2N1 (11719241_x_at) / Fold change /veh CAMK2N1 (11719241_x_at) / RFU C5orf56 (11738088_a_at) / Fold change /veh C5orf56 (11738088_a_at) / RFU OLFML3 (11715873_a_at) / Fold change /veh OLFML3 (11715873_a_at) / RFU LOC100653217 /// NTM (11731650_a_at) / Fold change /veh LOC100653217 /// NTM (11731650_a_at) / RFU MAPK11 (11762145_a_at) / Fold change /veh MAPK11 (11762145_a_at) / RFU FIZ1 (11724087_x_at) / Fold change /veh FIZ1 (11724087_x_at) / RFU OASL (11726364_x_at) / Fold change /veh OASL (11726364_x_at) / RFU SOX15 (11748057_x_at) / Fold change /veh SOX15 (11748057_x_at) / RFU CD79A (11719716_a_at) / Fold change /veh CD79A (11719716_a_at) / RFU HIST1H1D (11736915_at) / Fold change /veh HIST1H1D (11736915_at) / RFU CASKIN2 (11723855_a_at) / Fold change /veh CASKIN2 (11723855_a_at) / RFU LOC730098 (11760151_x_at) / Fold change /veh LOC730098 (11760151_x_at) / RFU OR4N2 (11742367_at) / Fold change /veh OR4N2 (11742367_at) / RFU PRRT2 (11749266_a_at) / Fold change /veh PRRT2 (11749266_a_at) / RFU SNX32 (11753110_a_at) / Fold change /veh SNX32 (11753110_a_at) / RFU CDHR5 (11726645_a_at) / Fold change /veh CDHR5 (11726645_a_at) / RFU RCAN1 (11760418_a_at) / Fold change /veh RCAN1 (11760418_a_at) / RFU FAM167A (11723789_a_at) / Fold change /veh FAM167A (11723789_a_at) / RFU FAM26E (11764081_at) / Fold change /veh FAM26E (11764081_at) / RFU ISYNA1 (11749810_s_at) / Fold change /veh ISYNA1 (11749810_s_at) / RFU ACY1 (11761880_at) / Fold change /veh ACY1 (11761880_at) / RFU 11764098_at / Fold change /veh 11764098_at / RFU SAMD14 (11745864_x_at) / Fold change /veh SAMD14 (11745864_x_at) / RFU NPB (11741838_a_at) / Fold change /veh NPB (11741838_a_at) / RFU TMPRSS6 (11731388_a_at) / Fold change /veh TMPRSS6 (11731388_a_at) / RFU KRTAP10-2 (11738614_at) / Fold change /veh KRTAP10-2 (11738614_at) / RFU ARHGAP8 /// PRR5-ARHGAP8 (11727945_x_at) / Fold change /veh ARHGAP8 /// PRR5-ARHGAP8 (11727945_x_at) / RFU KRTAP5-7 /// NADSYN1 (11734609_at) / Fold change /veh KRTAP5-7 /// NADSYN1 (11734609_at) / RFU RASL12 (11751679_a_at) / Fold change /veh RASL12 (11751679_a_at) / RFU CDKN2B (11736163_a_at) / Fold change /veh CDKN2B (11736163_a_at) / RFU PRF1 (11729649_at) / Fold change /veh PRF1 (11729649_at) / RFU, ZNF638 /// ZNF638-IT1 / Fold change vs veh, ZNF638 /// ZNF638-IT1 / RFU, PANK3 / Fold change vs veh, PANK3 / RFU, SH3YL1 / Fold change vs veh, SH3YL1 / RFU, ZEB2 / Fold change vs veh, ZEB2 / RFU, NRIP1 / Fold change vs veh, NRIP1 / RFU, PTTG1IP / Fold change vs veh, PTTG1IP / RFU, CAPN2 / Fold change vs veh, CAPN2 / RFU, MED14 / Fold change vs veh, MED14 / RFU, SNORA58 / Fold change vs veh, SNORA58 / RFU, C1orf63 / Fold change vs veh, C1orf63 / RFU, LRRFIP1 / Fold change vs veh, LRRFIP1 / RFU, NDUFAF7 / Fold change vs veh, NDUFAF7 / RFU, SLC12A2 / Fold change vs veh, SLC12A2 / RFU, IBTK / Fold change vs veh, IBTK / RFU, ESF1 / Fold change vs veh, ESF1 / Fold change vs veh, TMEM50B / RFU, TAOK1 / Fold change vs veh, TAOK1 / RFU, ACBD3 / Fold change vs veh, ACBD3 / RFU, TMA16 / Fold change vs veh, TMA16 / RFU, RWDD3 / Fold change vs veh, RWDD3 / RFU, BCAT1 / Fold change vs veh, BCAT1 / RFU, EDEM3 / Fold change vs veh, EDEM3 / RFU, TMEM33 / Fold change vs veh, TMEM33 / RFU, WDR75 / Fold change vs veh, WDR75 / RFU, AHCTF1 / Fold change vs veh, AHCTF1 / RFU, TFRC / Fold change vs veh, TFRC / RFU, ZDHHC17 / Fold change vs veh, ZDHHC17 / RFU, NOM1 / Fold change vs veh, NOM1 / RFU, ARL8B / Fold change vs veh, ARL8B / RFU, ZBTB11 / Fold change vs veh, ZBTB11 / RFU, TAMM41 / Fold change vs veh, TAMM41 / RFU, KIAA1704 /// LOC100996395 / Fold change vs veh, KIAA1704 /// LOC100996395 / RFU, ING1 / Fold change vs veh, ING1 / RFU, TRMT61B / Fold change vs veh, TRMT61B / RFU, FUBP3 / Fold change vs veh, FUBP3 / RFU, TP53 / Fold change vs veh, TP53 / RFU, TNKS2 / Fold change vs veh, TNKS2 / RFU, ZFP14 / Fold change vs veh, ZFP14 / RFU, ACTR2 / Fold change vs veh, ACTR2 / RFU, PPP3R1 / Fold change vs veh, PPP3R1 / RFU, PIK3R1 / Fold change vs veh, PIK3R1 / RFU, HNRNPA1 / Fold change vs veh, HNRNPA1 / RFU, RNF170 / Fold change vs veh, RNF170 / RFU, ZNF28 / Fold change vs veh, ZNF28 / RFU, RNGTT / Fold change vs veh, RNGTT / RFU, OGT / Fold change vs veh, OGT / RFU, BRD1 / Fold change vs veh, BRD1 / RFU, MARS / Fold change vs veh, MARS / RFU, ZNF655 / Fold change vs veh, ZNF655 / RFU, FAHD1 / Fold change vs veh, FAHD1 / RFU, BDP1 / Fold change vs veh, BDP1 / RFU, LRRCC1 / Fold change vs veh, LRRCC1 / RFU, ARID1A / Fold change vs veh, ARID1A / RFU, ZNF146 / Fold change vs veh, ZNF146 / RFU, ZNF330 / Fold change vs veh, ZNF330 / RFU, GPN3 / Fold change vs veh, GPN3 / RFU, C9orf123 / Fold change vs veh, C9orf123 / RFU, N4BP2L2 / Fold change vs veh, N4BP2L2 / RFU, ARFIP1 / Fold change vs veh, ARFIP1 / RFU, FAM179B / Fold change vs veh, FAM179B / RFU, BCL10 / Fold change vs veh, BCL10 / RFU, UHRF1BP1L / Fold change vs veh, UHRF1BP1L / RFU, BET1 / Fold change vs veh, BET1 / RFU, CNOT2 / Fold change vs veh, CNOT2 / RFU, ZNF268 / Fold change vs veh, ZNF268 / Fold change vs veh, ZNF507 / RFU, DGCR2 / Fold change vs veh, DGCR2 / RFU, WDSUB1 / Fold change vs veh, WDSUB1 / Fold change vs veh, HSP90B1 /// MIR3652 / RFU, ADSS / Fold change vs veh, ADSS / RFU, GK / Fold change vs veh, GK / RFU, ZNF148 / Fold change vs veh, ZNF148 / RFU, TAF9 / Fold change vs veh, TAF9 / RFU, SLC1A5 / Fold change vs veh, SLC1A5 / RFU, SLMO2 / Fold change vs veh, SLMO2 / RFU, ABCC4 / Fold change vs veh, ABCC4 / RFU, LOC101060439 /// RAP1B / Fold change vs veh, LOC101060439 /// RAP1B / RFU, RFX7 / Fold change vs veh, RFX7 / RFU, GTPBP10 / Fold change vs veh, GTPBP10 / RFU, CNEP1R1 / Fold change vs veh, CNEP1R1 / RFU, BIVM-ERCC5 /// ERCC5 / Fold change vs veh, BIVM-ERCC5 /// ERCC5 / RFU, ILF3 / Fold change vs veh, ILF3 / RFU 11762660_at / Fold change /veh 11762660_at / RFU VCAN (11757783_s_at) / Fold change /veh VCAN (11757783_s_at) / RFU DDX43 (11728927_at) / Fold change /veh DDX43 (11728927_at) / RFU KRT8 (11758188_x_at) / Fold change /veh KRT8 (11758188_x_at) / RFU NKD1 (11759106_at) / Fold change /veh NKD1 (11759106_at) / RFU SRD5A1 (11742802_a_at) / Fold change /veh SRD5A1 (11742802_a_at) / RFU TPSAB1 /// TPSB2 (11721975_s_at) / Fold change /veh TPSAB1 /// TPSB2 (11721975_s_at) / RFU GSTM3 (11746129_a_at) / Fold change /veh GSTM3 (11746129_a_at) / RFU IL23R (11737362_x_at) / Fold change /veh IL23R (11737362_x_at) / RFU TMEM51 (11727254_a_at) / Fold change /veh TMEM51 (11727254_a_at) / RFU PIWIL2 (11732686_x_at) / Fold change /veh PIWIL2 (11732686_x_at) / RFU ORM1 (11744905_x_at) / Fold change /veh ORM1 (11744905_x_at) / RFU CCDC152 (11743942_at) / Fold change /veh CCDC152 (11743942_at) / RFU ECM1 (11717891_a_at) / Fold change /veh ECM1 (11717891_a_at) / RFU IL23R (11748794_a_at) / Fold change /veh IL23R (11748794_a_at) / RFU TNFAIP8L3 (11732012_x_at) / Fold change /veh TNFAIP8L3 (11732012_x_at) / RFU MBOAT4 (11741988_at) / Fold change /veh MBOAT4 (11741988_at) / RFU 11764193_at / Fold change /veh 11764193_at / RFU TMEM53 (11763286_at) / Fold change /veh TMEM53 (11763286_at) / RFU MAGEB2 (11727129_at) / Fold change /veh MAGEB2 (11727129_at) / RFU TMEM200A (11744735_a_at) / Fold change /veh TMEM200A (11744735_a_at) / RFU CCDC152 (11751479_a_at) / Fold change /veh CCDC152 (11751479_a_at) / RFU FAM211A (11726209_a_at) / Fold change /veh FAM211A (11726209_a_at) / RFU RGS16 (11746705_a_at) / Fold change /veh RGS16 (11746705_a_at) / RFU VCAN (11755009_s_at) / Fold change /veh VCAN (11755009_s_at) / RFU RHOB (11743442_s_at) / Fold change /veh RHOB (11743442_s_at) / RFU RGS16 (11720943_a_at) / Fold change /veh RGS16 (11720943_a_at) / RFU RGS16 (11720944_at) / Fold change /veh RGS16 (11720944_at) / RFU, VPS4B / Fold change vs veh, VPS4B / RFU, CREB1 / Fold change vs veh, CREB1 / RFU, DNAJC13 / Fold change vs veh, DNAJC13 / RFU, GNAQ / Fold change vs veh, GNAQ / RFU, CDK5R1 / Fold change vs veh, CDK5R1 / RFU, ZRANB3 / Fold change vs veh, ZRANB3 / RFU, CUL4A / Fold change vs veh, CUL4A / RFU, CCNY / Fold change vs veh, CCNY / RFU, UFL1 / Fold change vs veh, UFL1 / RFU, COG3 / Fold change vs veh, COG3 / RFU, DIAPH2 / Fold change vs veh, DIAPH2 / RFU, SKA2 / Fold change vs veh, SKA2 / RFU, AFF3 / Fold change vs veh, AFF3 / RFU, LMF1 / Fold change vs veh, LMF1 / RFU, IPO11 / Fold change vs veh, IPO11 / RFU, DFFB / Fold change vs veh, DFFB / RFU, FOXP1 / Fold change vs veh, FOXP1 / RFU, CARD8 / Fold change vs veh, CARD8 / RFU, STRN3 / Fold change vs veh, STRN3 / RFU, ADK / Fold change vs veh, ADK / RFU, RASSF2 / Fold change vs veh, RASSF2 / RFU, WIPF1 / Fold change vs veh, WIPF1 / RFU, LARP1B / Fold change vs veh, LARP1B / RFU, RASA1 / Fold change vs veh, RASA1 / RFU, RB1 / Fold change vs veh, RB1 / RFU, PPFIA1 / Fold change vs veh, PPFIA1 / RFU, MAT2A / Fold change vs veh, MAT2A / RFU, CCT5 / Fold change vs veh, CCT5 / RFU, WDR92 / Fold change vs veh, WDR92 / RFU, CUX1 / Fold change vs veh, CUX1 / RFU, TTC7A / Fold change vs veh, TTC7A / RFU, TMEM135 / Fold change vs veh, TMEM135 / RFU, DEPTOR / Fold change vs veh, DEPTOR / RFU, CPM / Fold change vs veh, CPM / RFU, DNAJB6 / Fold change vs veh, DNAJB6 / RFU, CACNA2D3 / Fold change vs veh, CACNA2D3 / RFU, DTX4 / Fold change vs veh, DTX4 / RFU, TFCP2 / Fold change vs veh, TFCP2 / RFU, GMCL1 /// GMCL1P1 / Fold change vs veh, GMCL1 /// GMCL1P1 / RFU, AEBP2 / Fold change vs veh, AEBP2 / RFU, SNHG1 /// SNORD22 /// SNORD25 /// SNORD26 /// SNORD27 /// SNORD28 /// SNORD29 /// SNORD31 / Fold change vs veh, SNHG1 /// SNORD22 /// SNORD25 /// SNORD26 /// SNORD27 /// SNORD28 /// SNORD29 /// SNORD31 / Fold change (Aza/veh), C12orf56 (ProbeSet 11735607_a_at) / Fold change (ACY-1035/veh), C12orf56 (ProbeSet 11735607_a_at) / Fold change (Aza/veh), FGFR1OP (ProbeSet 11751329_s_at) / Fold change (ACY-1035/veh), FGFR1OP (ProbeSet 11751329_s_at) / Fold change (Aza/veh), VPS36 (ProbeSet 11739960_a_at) / Fold change (ACY-1035/veh), VPS36 (ProbeSet 11739960_a_at) / RFU SYPL1 (11715823_x_at) / Fold change /veh SYPL1 (11715823_x_at) / RFU IGFBP7 (11715501_s_at) / Fold change /veh IGFBP7 (11715501_s_at) / RFU REEP3 (11722064_at) / Fold change /veh REEP3 (11722064_at) / RFU IGLL1 (11728026_x_at) / Fold change /veh IGLL1 (11728026_x_at): dose or concentration left out as unconfirmed
Conditions: MV-4-11 cells, 48 hours

Structure (SMILES): Nc1ccc(-c2cccs2)cc1NC(=O)c1ccc2c(c1)cc(C1CC1)n2CCN1CCOCC1 [ACY-1035]
- Fold change /veh RGS16 (11720944_at): 0.97
